Results reported in PMC5719405, “Sex-related pharmacokinetic differences and mechanisms of metapristone (RU486 metabolite)” (Scientific Reports, 2017).
Where two headings read alike, the source gives them in different places.

Assays:
[1] = Single oral dose pharmacokinetics of metapristone in beagle dogs, non-compartmental analysis; assay type: in vivo; details: for AUC(0-inf) / AUC(0-t) / CL/F / Cmax / Tmax / Vd/F / half-life / MRT last: beagle, dog, plasma, po; for MRT last: read-out: MRT (0-t)
Method: For pharmacokinetic study, rats were fasted overnight with free access to water using procedures reported previously. Ninety-six SD rats (forty-eight males and forty-eight females) were randomly divided into […] single-dose groups. Rats (six animals/sex/dose) were given a single oral dose of 22.5, 45 and 90 mg/kg metapristone (in soybean oil solution) by intragastric administration or 10 mg/kg metapristone by intravenous bolus injection. Rat blood samples (0.25 mL) were collected from the ocular vein into heparinized tubes prior to and at 0 (before administration), 0.5, 1.0, 1.5, 2.0, 4.0, 6.0, 8.0, 12, 24, 36 and 48 h post-dosing in female rats or 0.5, 1.0, 1.5, 2.0, 4.0, 6.0, 8.0, 12, 24, 30 and 36 h post-dosing in male rats. In the repeated dose study twenty-four rats (six animals/sex/dose) received the same dosing regimen at 45 mg/kg metapristone for 10 days. Blood samples were collected after oral administration on day 1 and 10 at T max. The samples were stored at −80 °C until analysis. Beagle dogs (three animals/sex/dose) were dosed by gavage at 5.62, 11.25, 22.5 mg/kg metapristone (in soybean oil solution). Dog blood (0.25 mL) was withdrawn from the jugular vein at 0.5, 1.0, 2.0, 4.0, 6.0, 8.0, 10, 12, 24 and 48 h after a single oral administration.
The plasma samples obtained by centrifugation at 4000 g for 10 min and stored at −80 °Cuntil analysis. To each 100 µL of plasma sample, 50 µL of internal standard solution were added. Metapristone was then separated and analyzed by the LC/MS/MS method according to the previously described procedures. Peak area ratios of metapristone to the internal standard were plotted against theoretical concentrations. The maximum plasma concentration (C max), the time to reach C max (T max) were determined directly from experimental data. The other pharmacokinetic parameters such as elimination half-life (t 1/2), and mean residence time (MRT) were calculated by using the non-compartmental pharmacokinetics data analysis software of DAS version 3.2 (Bio Guider Co., Shanghai, China). The area under the plasma concentration-time curve from zero to infinity was calculated by using the linear trapezoidal rule with extrapolation to infinity with terminal constant eliminate rate (k e). Bioavailability was calculated as (AUCp.o./AUCi.v.) x (dosei.v./ dosep.o.) 100% as we previously described.

cancer cells = details: cited from earlier work
[2] = In vitro microsomal metabolism of metapristone; assay type: in vitro ADME, rat; details: for metapristone remained: 2 h; for degradation of metapristone: 37 °C, 1 h
Method: The microsomal assay was similar to that described previously. Briefly, metapristone (6, 9, 13.5 µM) was incubated with male and female at liver microsomes, respectively, in an NADPH-generating system containing 1 mM NADP, 10 mM glucose-6-phosphate, 1 U/mL glucose-6-phosphate dehydrogenase and 4 mM MgCl2 in 100 mM potassium phosphate buffer (pH 7.4). Reaction mixtures were prepared in duplicate and were pre-incubated for 5 min at 37 °C. The actions were then initiated by the addition of NADPH solution. The final volume of each reaction mixture was 200 µL. Negative control reactions were prepared by incubating mixtures that excluded metapristone from the mixture. For negative control incubation where microsomes were excluded, they were added back to the reaction mixture after quenching with methanol. Samples were removed at 0, 40, 60, 80,100, 120 and 150 min, and vortex-mixed with cold ethyl acetate to stop the reaction. After centrifugation, a portion of each resulting supernatant was analyzed by mass spectrometry for unchanged metapristone.

[3] = rats, 12.5, 50 and 200 mg/kg/day; only occurred at 200 mg/kg/day; cited from earlier work
[4] = 5.62, 11.25 and 22.5 mg/kg p.o.

C max and AUC in female dogs relative to male dogs (greater) [1, 4]: 1–2.4 fold
CL/F in female dogs relative to male dogs (lower) [1, 4]: 1.5–3.6 fold
V d /F in female dogs relative to male dogs (lower) [1, 4]: 1.3–2.38 fold
AUC(0-inf) ([1]; female dogs, p.o. 5.6 mg/kg): 580 ± 120 ng·h/mL
AUC(0-t) ([1]; female dogs, p.o. 5.6 mg/kg): 560 ± 110 ng·h/mL
CL/F ([1]; female dogs, p.o. 5.6 mg/kg): 165 mL/min/kg
Cmax ([1]; female dogs, p.o. 5.6 mg/kg): 70 ± 10 ng/mL
Tmax ([1]; female dogs, p.o. 5.6 mg/kg): 1.67 ± 0.57 h
Vd/F ([1]; female dogs, p.o. 5.6 mg/kg): 126 ± 7.1 L/kg
half-life ([1]; female dogs, p.o. 5.6 mg/kg): 8.05 ± 1.12 h
MRT last ([1]; female dogs, p.o. 5.6 mg/kg): 7.23 ± 1.69 h
AUC(0-inf) ([1]; female dogs, p.o. 11.25 mg/kg): 1330 ± 110 ng·h/mL
AUC(0-t) ([1]; female dogs, p.o. 11.25 mg/kg): 1280 ± 100 ng·h/mL
CL/F ([1]; female dogs, p.o. 11.25 mg/kg): 141 mL/min/kg
Cmax ([1]; female dogs, p.o. 11.25 mg/kg): 190 ± 30 ng/mL
Tmax ([1]; female dogs, p.o. 11.25 mg/kg): 1.67 ± 0.57 h
Vd/F ([1]; female dogs, p.o. 11.25 mg/kg): 105 ± 9.17 L/kg
half-life ([1]; female dogs, p.o. 11.25 mg/kg): 8.57 ± 1.12 h
MRT last ([1]; female dogs, p.o. 11.25 mg/kg): 8.62 ± 0.56 h
AUC(0-inf) ([1]; female dogs, p.o. 22.5 mg/kg): 2560 ± 210 ng·h/mL
AUC(0-t) ([1]; female dogs, p.o. 22.5 mg/kg): 2400 ± 150 ng·h/mL
CL/F ([1]; female dogs, p.o. 22.5 mg/kg): 147 mL/min/kg
Cmax ([1]; female dogs, p.o. 22.5 mg/kg): 380 ± 10 ng/mL
Tmax ([1]; female dogs, p.o. 22.5 mg/kg): 1.66 ± 0.57 h
Vd/F ([1]; female dogs, p.o. 22.5 mg/kg): 89.2 ± 14.1 L/kg
half-life ([1]; female dogs, p.o. 22.5 mg/kg): 7.19 ± 2.83 h
MRT last ([1]; female dogs, p.o. 22.5 mg/kg): 7 ± 0.61 h
AUC(0-inf) ([1]; male dogs, p.o. 5.6 mg/kg): 230 ± 50 ng·h/mL
AUC(0-t) ([1]; male dogs, p.o. 5.6 mg/kg): 210 ± 30 ng·h/mL
CL/F ([1]; male dogs, p.o. 5.6 mg/kg): 266 mL/min/kg
Cmax ([1]; male dogs, p.o. 5.6 mg/kg): 50 ng/mL
Tmax ([1]; male dogs, p.o. 5.6 mg/kg): 2 h
Vd/F ([1]; male dogs, p.o. 5.6 mg/kg): 187 ± 8.21 L/kg
half-life ([1]; male dogs, p.o. 5.6 mg/kg): 8.18 ± 2.9 h
MRT last ([1]; male dogs, p.o. 5.6 mg/kg): 7.16 ± 1.12 h
AUC(0-inf) ([1]; male dogs, p.o. 11.25 mg/kg): 770 ± 110 ng·h/mL
AUC(0-t) ([1]; male dogs, p.o. 11.25 mg/kg): 750 ± 100 ng·h/mL
CL/F ([1]; male dogs, p.o. 11.25 mg/kg): 241 mL/min/kg
Cmax ([1]; male dogs, p.o. 11.25 mg/kg): 150 ± 30 ng/mL
Tmax ([1]; male dogs, p.o. 11.25 mg/kg): 2 h
Vd/F ([1]; male dogs, p.o. 11.25 mg/kg): 136 ± 13.1 L/kg
half-life ([1]; male dogs, p.o. 11.25 mg/kg): 5.54 ± 2.3 h
MRT last ([1]; male dogs, p.o. 11.25 mg/kg): 5.68 ± 1.1 h
AUC(0-inf) ([1]; male dogs, p.o. 22.5 mg/kg): 1600 ± 340 ng·h/mL
AUC(0-t) ([1]; male dogs, p.o. 22.5 mg/kg): 1560 ± 310 ng·h/mL
CL/F ([1]; male dogs, p.o. 22.5 mg/kg): 210 mL/min/kg
Cmax ([1]; male dogs, p.o. 22.5 mg/kg): 300 ± 20 ng/mL
Tmax ([1]; male dogs, p.o. 22.5 mg/kg): 2 h
Vd/F ([1]; male dogs, p.o. 22.5 mg/kg): 123 ± 15 L/kg
half-life ([1]; male dogs, p.o. 22.5 mg/kg): 6.79 ± 2.81 h
MRT last ([1]; male dogs, p.o. 22.5 mg/kg): 6.18 ± 0.34 h
increase of Cmax for female dogs versus male dogs ([1]; p.o. 5.6 mg/kg): 40%
metapristone remained ([2]; female rat liver microsomes, 6 µM): 21.9%
metapristone remained ([2]; female rat liver microsomes, 9 µM): 27.2%
metapristone remained ([2]; female rat liver microsomes, 13.5 µM): 37.3%
degradation of metapristone ([2]; female rat liver microsomes, 6, 9 and 13.5 µM): 35.1–48.9%
metapristone remained ([2]; male rat liver microsomes, 6 µM): 10.2%
metapristone remained ([2]; male rat liver microsomes, 9 µM): 14.2%
metapristone remained ([2]; male rat liver microsomes, 13.5 µM): 29.6%
degradation of metapristone ([2]; male rat liver microsomes, 6, 9 and 13.5 µM): 47.4–67.6%
Structure (SMILES): CC#C[C@]1(O)CC[C@H]2[C@@H]3CCC4=CC(=O)CCC4=C3[C@@H](c3ccc(NC)cc3)C[C@@]21C [metapristone, N-monodemethyl mifepristone]
effect on cancer cells (cancer cells): cytostatic effect
hepatotoxicity after thirty-day oral administration [3]: reversible hepatotoxicity
